Results taken from publication PMC9127750, “Structure-based design of CDC42 effector interaction inhibitors for the treatment of cancer” (Cell reports, 2022).

Test system: WM3248 melanoma cells, 486 antibodies
Experiment: Reverse phase protein arrays (RPPA);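 on RPPA ACC1.R.C: ratio of treated to vehicle (0 µM) normalized linear protein signal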;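 on RPPA AMPK.a2 pS345.R.V: ratio of treated to vehicle (0 µM) normalized linear protein signal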;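 on RPPA AMPKa pT172.R.C: ratio of treated to vehicle (0 µM) normalized linear protein signal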;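 on RPPA ASNS.R.V: ratio of treated to vehicle (0 µM) normalized linear protein signal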;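 on RPPA AceCS1.R.V: ratio of treated to vehicle (0 µM) normalized linear protein signal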;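 on RPPA Akt1.R.V: ratio of treated to vehicle (0 µM) normalized linear protein signal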;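 on RPPA Atg5.R.C: ratio of treated to vehicle (0 µM) normalized linear protein signal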;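 on RPPA Bim.R.V: ratio of treated to vehicle (0 µM) normalized linear protein signal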
Format: cell-based, Human
Conditions: 10 uM
Excerpt: Pellets were snap frozen in liquid nitrogen and shipped to MD Anderson Cancer Center core RPPA facility for RPPA analysis (Table S5). Three biological replicates for each sample were generated.
Nomenclatures on the RPPA heatmaps: name_of_antibody.species_of_antibody.status_of_antibody. V - antibody validated; C - validation of antibody in progress; Q - antibody nonspecific; E – under evaluation; antibodies raised in M - mouse, G - goat, R - rabbit, or T - rat.

CN(C)c1cccc(Nc2cc(-c3ccccc3)nc(C3CCNCC3)n2)c1 [ARN22089, N1,N1-dimethyl-N3-(6-phenyl-2-(piperidin-4-yl)pyrimidin-4-yl)benzene-1,3-diamine]
RPPA B7.H4.R.C (10W1): 1.035
RPPA B.Raf.R.C (10W1): 0.916
RPPA B.Raf_pS445.R.V (10W1): 0.953
RPPA BAP1.M.V (10W1): 0.957
RPPA BCL2A1.R.V (10W1): 1.947
RPPA BMK1.Erk5_pT218_Y220.R.V (10W1): 0.926
RPPA BRCA1.M.C (10W1): 1.059
RPPA BRD4.R.V (10W1): 1.134
RPPA Bad_pS112.R.V (10W1): 1.118
RPPA Bax.R.V (10W1): 1.004
RPPA Bcl2.R.C (10W1): 1.048
RPPA Bcl.xL.R.V (10W1): 1.112
RPPA Beclin.R.C (10W1): 1.064
RPPA Bim.R.V (10W1): 1.024
RPPA X4E.BP1.R.V (10W1): 0.716
RPPA X4E.BP1_pS65.R.V (10W1): 0.893
RPPA X4E.BP1_pT37_T46.R.V (10W1): 0.934
RPPA X14.3.3.zeta.R.V (10W1): 1.029
RPPA X14.3.3βR.V (10W1): 1.012
RPPA X14.3.3εM.C (10W1): 0.955
RPPA X53BP1.R.V (10W1): 0.984
RPPA b.Catenin.R.V (10W1): 0.868
RPPA b.Catenin_pT41_S45.R.V (10W1): 1.019
RPPA c.Abl.R.V (10W1): 1.140
RPPA c.Abl_pY412.R.C (10W1): 0.995
RPPA A.Raf_pS299.R.C (10W3): 0.989
RPPA ACC1.R.C (10W3): 0.761
RPPA ACC_pS79.R.V (10W3): 0.652
RPPA ACLY_pS455.R.V (10W3): 1.060
RPPA ACSL1.R.V (10W3): 0.743
RPPA ACVRL1.R.C (10W3): 1.047
RPPA ADAR1.M.V (10W3): 0.974
RPPA AMPK.a2_pS345.R.V (10W3): 1.012
RPPA AMPKa.R.C (10W3): 0.993
RPPA AMPKa_pT172.R.C (10W3): 0.770
RPPA AR.R.V (10W3): 0.980
RPPA ARID1A.R.C (10W3): 1.025
RPPA ASNS.R.V (10W3): 1.126
RPPA ATM.R.V (10W3): 0.864
RPPA ATM_pS1981.R.V (10W3): 1.016
RPPA ATP5A.M.C (10W3): 0.859
RPPA ATP5H.R.V (10W3): 1.047
RPPA ATR.R.V (10W3): 0.992
RPPA ATRX.R.C (10W3): 0.863
RPPA ATR_pS428.R.C (10W3): 1.076
RPPA AceCS1.R.V (10W3): 0.950
RPPA Akt1.R.V (10W3): 1.034
RPPA Akt1_pS473.R.V (10W3): 1.099
RPPA Akt2.R.V (10W3): 0.982
RPPA Akt2_pS474.R.C (10W3): 1.062
RPPA Akt.R.V (10W3): 0.811
RPPA Akt_pS473.R.V (10W3): 1.223
RPPA Akt_pT308.R.V (10W3): 1.196
RPPA Ambra1_pS52.R.C (10W3): 0.979
RPPA Annexin.I.M.V (10W3): 0.896
RPPA Annexin.VII.M.V (10W3): 0.983
RPPA Atg5.R.C (10W3): 0.843
RPPA Atg7.R.V (10W3): 0.986
RPPA Aurora.A.R.C (10W3): 1.109
RPPA Aurora.ABC_pT288_pT232_pT198.R.C (10W3): 0.933
RPPA Aurora.B.R.V (10W3): 1.003
RPPA Axl.R.V (10W3): 0.953
RPPA B7.H3.R.C (10W3): 1.031
RPPA B.Raf_pS445.R.V (10W3): 1.006
RPPA BAP1.M.V (10W3): 1.063
RPPA BCL2A1.R.V (10W3): 1.172
RPPA BMK1.Erk5_pT218_Y220.R.V (10W3): 0.935
RPPA BRCA1.M.C (10W3): 0.989
RPPA BRD4.R.V (10W3): 0.839
RPPA Bad_pS112.R.V (10W3): 1.059
RPPA Bak.R.C (10W3): 1.018
RPPA Bax.R.V (10W3): 0.972
RPPA Bcl.xL.R.V (10W3): 1.015
RPPA Beclin.R.C (10W3): 0.995
RPPA BiP.GRP78.M.C (10W3): 1.013
RPPA Bid.R.C (10W3): 1.021
RPPA Bim.R.V (10W3): 0.900
RPPA X4E.BP1.R.V (10W3): 0.590
RPPA X4E.BP1_pS65.R.V (10W3): 1.148
RPPA X4E.BP1_pT37_T46.R.V (10W3): 1.133
RPPA X14.3.3.zeta.R.V (10W3): 1.033
RPPA X14.3.3βR.V (10W3): 1.026
RPPA X14.3.3εM.C (10W3): 1.009
RPPA X53BP1.R.V (10W3): 0.920
RPPA b.Actin.R.C (10W3): 1.024
RPPA b.Catenin.R.V (10W3): 0.914
RPPA b.Catenin_pT41_S45.R.V (10W3): 1.012
RPPA c.Abl.R.V (10W3): 1.061
RPPA c.Abl_pY412.R.C (10W3): 0.963
RPPA c.IAP2.R.C (10W3): 1.023
C.Raf.R.C RPPA level (Average): 0.940
C.Raf_pS338.R.V RPPA level (Average): 0.978
CA9.R.C RPPA level (Average): 0.980
CD2.M.C RPPA level (Average): 1.035
CD4.R.V RPPA level (Average): 0.935
CD5.M.C RPPA level (Average): 1.029
CD20.R.C RPPA level (Average): 1.026
CD26.R.V RPPA level (Average): 0.948
CD29.M.V RPPA level (Average): 1.016
CD31.M.V RPPA level (Average): 1.034
CD38.R.C RPPA level (Average): 0.977
CD44.R.C RPPA level (Average): 1.010
CD45.M.V RPPA level (Average): 1.023
CD49b.M.V RPPA level (Average): 1.014
CD68.M.C RPPA level (Average): 1.034
CD134.R.V RPPA level (Average): 1.019
CD171.M.V RPPA level (Average): 0.898
CDK1_pT14.R.C RPPA level (Average): 0.932
CDK9.R.V RPPA level (Average): 1.014
CDT1.R.V RPPA level (Average): 1.048
CENP.A.R.V RPPA level (Average): 1.017
CHD1L.R.V RPPA level (Average): 1.034
CIITA.R.C RPPA level (Average): 1.018
COG3.R.V RPPA level (Average): 1.062
CRABP1.R.C RPPA level (Average): 1.050
CREB_pS133.R.C RPPA level (Average): 1.130
Calnexin.R.V RPPA level (Average): 1.046
Caspase.3.cleaved.R.C RPPA level (Average): 0.944
Caspase.7.cleaved..R.C RPPA level (Average): 0.997
Caspase.8.M.Q RPPA level (Average): 0.957
Caspase.8.cleaved.R.C RPPA level (Average): 0.988
Caveolin.1.R.V RPPA level (Average): 0.941
Cdc6.R.V RPPA level (Average): 0.971
Cdc42.R.C RPPA level (Average): 0.986
Chk1.M.C RPPA level (Average): 1.082
Chk1_pS345.R.C RPPA level (Average): 0.961
Chk2.M.V RPPA level (Average): 1.026
Chk2_pT68.R.C RPPA level (Average): 1.020
Claudin.7.R.V RPPA level (Average): 1.203
Collagen.VI.R.V RPPA level (Average): 1.025
Complex.II.Subunit.M.V RPPA level (Average): 1.017
Connexin.43.R.C RPPA level (Average): 1.031
Coup.TFII.R.C RPPA level (Average): 0.889
Cox2.R.C RPPA level (Average): 0.972
Cox.IV.R.V RPPA level (Average): 0.954
Creb.R.C RPPA level (Average): 0.986
CtIP.R.V RPPA level (Average): 0.940
Cyclin.B1.R.V RPPA level (Average): 0.940
Cyclin.D1.R.C RPPA level (Average): 1.061
Cyclin.D3.M.V RPPA level (Average): 1.058
Cyclin.E1.R.V RPPA level (Average): 1.006
Cyclophilin.F.M.V RPPA level (Average): 0.965
D.a.Tubulin.R.V RPPA level (Average): 0.976
DAPK2.R.C RPPA level (Average): 0.971
DDB.1.R.V RPPA level (Average): 0.857
DDR1.R.V RPPA level (Average): 1.028
DDR1_pY513.R.C RPPA level (Average): 1.051
DJ1.R.V RPPA level (Average): 1.016
DM.Histone.H3.R.V RPPA level (Average): 0.928
DNA.Ligase.IV.R.C RPPA level (Average): 1.003
DNA_POLG.R.V RPPA level (Average): 1.013
RPPA A.Raf.R.V (Average): 0.917
RPPA ACC1.R.C (Average): 0.919
RPPA ACC_pS79.R.V (Average): 0.878
RPPA ACLY_pS455.R.V (Average): 1.125
RPPA ACSL1.R.V (Average): 0.971
RPPA ADAR1.M.V (Average): 1.083
RPPA ALKBH5.R.V (Average): 1.027
RPPA AMPK.a2_pS345.R.V (Average): 1.001
RPPA AMPKa.R.C (Average): 0.982
RPPA AMPKa_pT172.R.C (Average): 1.263
RPPA AR.R.V (Average): 0.922
RPPA ASNS.R.V (Average): 0.960
